From patent US7713963B2, “Acylated indanyl amines and their use as pharmaceuticals” (sanofi-aventis Deutschland GmbH, priority 2001, dated 2010) come the findings set out here.

Where two headings read alike, the source gives them in different places.

The assay concerns eNOS promoter. The assay is described as follows: Activation of eNOS transcription (eNOS promoter-luciferase reporter gene assay). It counts as cell-based, human. The following applies: 18 h incubation; for maximal fold induction: read-out: TIR (max); for EC50: EC50 of transcription induction ratio, determined graphically, human endothelial cell line, read-out: EC-50. How it is done: Measurement of activation of eNOS transcription Activation of eNOS transcription was measured as described in detail in Li et al. “Activation of protein kinase C alpha and/or epsilon enhances transcription of the human endothelial nitric oxide synthase gene”, Mol. Pharmacol. 1998; 53: 630-637. Briefly, a 3.5 kB long fragment 5′ of the starting codon of the eNOS gene was cloned, sequenced and cloned in firefly luciferase expression plasmids to monitor activation of the eNOS promoter by reporter gene activity. A human endothelial cell line stable transfected and expressing this promoter-reporter construct was used for compound testing. Cells were incubated for 18 h with compounds. All compounds were dissolved in sterile DMSO. A final concentration of 0.5% DMSO in complete medium was allowed. Induction of reporter gene expression in these cells was measured using a standard luciferase assay system (Promega, Cat. No E150) according to the manufacturer's instructions. Luciferase induction in cells incubated with compounds were compared to those incubated with solvent alone. The ratio of both activities (transcription induction ratio, TIR) was plotted as a function of compound concentration. […] EC50 values of transcription induction ratios as a function of compound concentration were determined graphically.
Background: In a reporter assay the amount or activity of a reporter protein is the signal.

The mark [1] stands for this setting: Homo sapiens, 18 h, maximum transcription induction ratio (luciferase with compound / solvent alone).
[2] abbreviates: Homo sapiens, Endothelial cell, 18 h.

Consider `O=C(NC1Cc2ccccc2C1)c1ccc(Cl)c(Cl)c1` [Compound 314, 3,4-DICHLORO-N-INDAN-2-YL-BENZAMIDE], for which, under setting [1], the maximal fold induction stood at 2.2. Also, the EC50 under setting [2] amounted to 12 µM.

Consider `CCCCOc1ccc(C(=O)NC2Cc3ccccc3C2)cc1` [Compound 30, 4-BUTOXY-N-INDAN-2-YL-BENZAMIDE], for which, under setting [1], the maximal fold induction came out at 2.94. In addition, the EC50 under setting [2] is 3 µM.

On to `Cc1nc(C(F)(F)F)ccc1C(=O)NC1Cc2ccccc2C1` [Compound 237, N-INDAN-2-YL-2-METHYL-6-TRIFLUOROMETHYL-NICOTINAMIDE], for which the maximal fold induction under setting [1] was 2.5. In addition, the EC50 under setting [2] amounted to 7.7 µM.

For `O=C(NC1Cc2ccccc2C1)c1cc(F)c(Cl)cc1F` [Compound 263, 4-CHLORO-2,5-DIFLUORO-N-INDAN-2-YL-BENZAMIDE], the maximal fold induction under setting [1] came out at 2.5. The EC50 under setting [2] is 13 µM.

Turning to `CC(C)Oc1ccc(C(=O)NC2Cc3ccccc3C2)cc1` [Compound 28, 4-ISOPROPYLOXY-N-INDAN-2-YL-BENZAMIDE], under setting [1], the maximal fold induction was found to be 4.4. The EC50 under setting [2] is 2.5 µM.

Take `Nc1c(C(=O)NC2Cc3ccccc3C2)cnn1-c1ccccn1` [Compound 386A, 5-AMINO-1-PYRIDIN-2-YL-1H-PYRAZOLE-4-CARBOXYLIC ACID INDAN-2-YLAMIDE]: the maximal fold induction under setting [1] stood at 3.3. Further, the EC50 under setting [2] amounted to 5.1 µM.

Consider `CCOc1ccc(C(=O)NC2Cc3ccccc3C2)cc1` [Compound 26, 4-ETHOXY-N-INDAN-2-YL-BENZAMIDE], for which the maximal fold induction under setting [1] came to 3.8. The EC50 under setting [2] stood at 0.9 µM.

For the molecule `Cc1ccc(C(=O)NC2Cc3ccccc3C2)cc1Cl` [Compound 34, 3-CHLORO-4-METHYL-N-INDAN-2-YL-BENZAMIDE], the maximal fold induction under setting [1] was 3.4. The EC50 under setting [2] was 1.7 µM.

For `O=C(NC1Cc2ccccc2C1)c1ccc(Br)cc1F` [Compound 350, 4-BROMO-2-FLUORO-N-INDAN-2-YL-BENZAMIDE], under setting [1], the maximal fold induction turned out to be 2.9. For the same molecule, the EC50 under setting [2] turned out to be 0.523 µM.

Take `CCOc1ccc(C(=O)NC2Cc3ccccc3C2)c(OC(C)=O)c1` [Compound 6, ACETIC ACID 5-ETHOXY-2-(INDAN-2-YL-CARBAMOYL)-PHENYL ESTER]: the maximal fold induction under setting [1] turned out to be 2.55. For the same molecule, under setting [2], the EC50 turned out to be 1.2 µM.

As to `O=C(NC1Cc2ccc(F)cc2C1)c1ccc(F)cc1` (stereo not shown) [Compound 4, 4-FLUORO-N-(5-FLUORO-INDAN-2-YL)-BENZAMIDE], under setting [1], the maximal fold induction was found to be 2.95. The EC50 under setting [2] amounted to 3 µM.

Consider `O=C(NC1Cc2ccccc2C1)c1ccc(F)c(F)c1F` [Compound 320, 2,3,4-TRIFLUORO-N-INDAN-2-YL-BENZAMIDE], for which the maximal fold induction under setting [1] was found to be 3. The EC50 under setting [2] came out at 12 µM.

With `Cc1ccc(F)c(C(=O)NC2Cc3ccccc3C2)c1Cl` [Compound 346, 2-CHLORO-6-FLUORO-N-INDAN-2-YL-3-METHYL-BENZAMIDE], the maximal fold induction under setting [1] is 2.6. Further, the EC50 under setting [2] is 26 µM.

`Cc1cc(Br)c(C(=O)NC2Cc3ccccc3C2)s1` [Compound 364, 3-BROMO-5-METHYL-THIOPHENE-2-CARBOXYLIC ACID INDAN-2-YLAMIDE]: the maximal fold induction under setting [1] stood at 2.9. Also, the EC50 under setting [2] was found to be 2.1 µM.

Turning to `O=C(NC1Cc2ccccc2C1)c1cccc(Cl)c1Cl` [Compound 276, 2,3-DICHLORO-N-INDAN-2-YL-BENZAMIDE], the maximal fold induction under setting [1] was determined as 3. Further, the EC50 under setting [2] turned out to be 0.157 µM.

Take `O=C(NC1Cc2ccccc2C1)c1ccccc1F` [Compound 273, 2-FLUORO-N-INDAN-2-YL-BENZAMIDE]: the maximal fold induction under setting [1] stood at 2.8. In addition, the EC50 under setting [2] stood at 2.6 µM.

With `Cc1ccc(F)c(C(=O)NC2Cc3ccccc3C2)c1` [Compound 266, 2-FLUORO-N-INDAN-2-YL-5-METHYL-BENZAMIDE], the maximal fold induction under setting [1] was 2.5. For the same molecule, under setting [2], the EC50 turned out to be 22 µM.

As for `O=C(NC1Cc2ccccc2C1)c1ccccc1Br` [Compound 272, 2-BROMO-N-INDAN-2-YL-BENZAMIDE], the maximal fold induction under setting [1] amounted to 2.9. For the same molecule, the EC50 under setting [2] is 1.6 µM.

For the molecule `CS(=O)(=O)c1csc(C(=O)NC2Cc3ccccc3C2)c1Cl` [Compound 321, 3-CHLORO-4-METHANESULFONYL-THIOPHENE-2-CARBOXYLIC ACID INDAN-2-YLAMIDE], under setting [1], the maximal fold induction amounted to 2.5. Moreover, the EC50 under setting [2] came out at 9.6 µM.

Turning to `O=C(NC1Cc2ccccc2C1)c1cccc(NC(=O)C2CC2)c1` [Compound 376, 3-(CYCLOPROPANECARBONYL-AMINO)-N-INDAN-2-YL-BENZAMIDE], the maximal fold induction under setting [1] came to 2.4. In addition, under setting [2], the EC50 is 5.3 µM.

On to `Cc1cc(C(=O)NC2Cc3ccccc3C2)c(C)n1Cc1ccncc1` [Compound 230, 2,5-DIMETHYL-1-PYRIDIN-4-YLMETHYL-1H-PYRROLE-3-CARBOXYLIC ACID INDAN-2-YLAMIDE], for which, under setting [1], the maximal fold induction came to 4. Also, the EC50 under setting [2] was 0.82 µM.

Consider `O=C(NC1Cc2ccccc2C1)c1cccc(-c2cccnc2)c1` [Compound 432, N-INDAN-2-YL-3-PYRIDIN-3-YL-BENZAMIDE], for which, under setting [1], the maximal fold induction amounted to 2.5. Besides, the EC50 under setting [2] was found to be 9.6 µM.

Take `Cc1ccc(C)n1-c1ccc(C(=O)NC2Cc3ccccc3C2)cc1` [Compound 327, 4-(2,5-DIMETHYL-PYRROL-1-YL)-N-INDAN-2-YL-BENZAMIDE]: under setting [1], the maximal fold induction is 2.5. The EC50 under setting [2] was found to be 2.6 µM.

As to `O=C(NC1Cc2ccccc2C1)c1cccc(Cl)c1F` [Compound 250, 3-CHLORO-2-FLUORO-N-INDAN-2-YL-BENZAMIDE], under setting [1], the maximal fold induction stood at 2.5. Further, under setting [2], the EC50 was found to be 58 µM.

On to `O=C(NC1Cc2ccccc2C1)c1ccc(Cl)cc1Br` [Compound 331, 2-BROMO-4-CHLORO-N-INDAN-2-YL-BENZAMIDE], for which the maximal fold induction under setting [1] amounted to 2.8. For the same molecule, the EC50 under setting [2] was 0.147 µM.

Regarding `O=C(NC1Cc2ccc(OS(=O)(=O)c3ccccc3)cc2C1)c1ccc(F)cc1` (stereo not shown) [Compound 405, BENZENESULFONIC ACID 2-(4-FLUOROBENZOYLAMINO)-INDAN-5-YL ESTER], under setting [1], the maximal fold induction turned out to be 2.8. In addition, the EC50 under setting [2] stood at 30 µM.

Regarding `CS(=O)(=O)Nc1cccc(C(=O)NC2Cc3ccccc3C2)c1` [Compound 388, N-INDAN-2-YL-3-METHANE SULFONYLAMINO-BENZAMIDE], the EC50 is 1.1 µM. Besides, for the setting “maximum transcription induction ratio (luciferase with compound / solvent alone)”, the “TIR (max)” value was 2.4.

For the molecule `O=C(NC1Cc2c(I)ccc(I)c2C1)c1ccc(F)cc1` [Compound 429, N-(4,7-DIIODO-INDAN-2-YL)-4-FLUORO-BENZAMIDE], under setting [1], the maximal fold induction is 2.8. Besides, the EC50 under setting [2] amounted to 0.6 µM.

In the case of `O=C(NC1Cc2ccccc2C1)c1ccc(Br)cc1` [Compound 289, 4-BROMO-N-INDAN-2-YL-BENZAMIDE], under setting [1], the maximal fold induction amounted to 2.6. The EC50 under setting [2] is 0.142 µM.

As to `O=C(NC1Cc2ccccc2C1)c1cc(Cl)ccc1F` [Compound 330, 5-CHLORO-2-FLUORO-N-INDAN-2-YL-BENZAMIDE], the maximal fold induction under setting [1] amounted to 2.2. The EC50 under setting [2] was 12 µM.

`O=C(NC1Cc2ccccc2C1)c1ccc(SC(F)(F)F)cc1` [Compound 246, N-INDAN-2-YL-4-TRIFLUOROMETHYLSULFANYL-BENZAMIDE]: under setting [1], the maximal fold induction came out at 2.5. Also, the EC50 under setting [2] was found to be 0.67 µM.

Turning to `O=C(NC1Cc2ccccc2C1)c1cccc(C(=O)c2ccccc2)c1` [Compound 287, 3-BENZOYL-N-INDAN-2-YL-BENZAMIDE], the maximal fold induction under setting [1] was 2.9. The EC50 under setting [2] came to 13 µM.
